What is called pKi is −log10 of the Ki, conventionally taken in molar units.

From patent publication US20240400553A1, “AMINE BASED MATRIPTASE 2 INHIBITORS AND USES THEREOF” (Disc Medicine, Inc., priority 2023, published 2024) come the findings set out here.

Molecules are shown by their SMILES. pKi: −log10 of the molar value.

The target of the test is T1, Human Recombinant Matriptase 2 (Homo sapiens, UniProt Q8IU80).
T1 construct: made in house
T1 sequence (Q8IU80 1-811): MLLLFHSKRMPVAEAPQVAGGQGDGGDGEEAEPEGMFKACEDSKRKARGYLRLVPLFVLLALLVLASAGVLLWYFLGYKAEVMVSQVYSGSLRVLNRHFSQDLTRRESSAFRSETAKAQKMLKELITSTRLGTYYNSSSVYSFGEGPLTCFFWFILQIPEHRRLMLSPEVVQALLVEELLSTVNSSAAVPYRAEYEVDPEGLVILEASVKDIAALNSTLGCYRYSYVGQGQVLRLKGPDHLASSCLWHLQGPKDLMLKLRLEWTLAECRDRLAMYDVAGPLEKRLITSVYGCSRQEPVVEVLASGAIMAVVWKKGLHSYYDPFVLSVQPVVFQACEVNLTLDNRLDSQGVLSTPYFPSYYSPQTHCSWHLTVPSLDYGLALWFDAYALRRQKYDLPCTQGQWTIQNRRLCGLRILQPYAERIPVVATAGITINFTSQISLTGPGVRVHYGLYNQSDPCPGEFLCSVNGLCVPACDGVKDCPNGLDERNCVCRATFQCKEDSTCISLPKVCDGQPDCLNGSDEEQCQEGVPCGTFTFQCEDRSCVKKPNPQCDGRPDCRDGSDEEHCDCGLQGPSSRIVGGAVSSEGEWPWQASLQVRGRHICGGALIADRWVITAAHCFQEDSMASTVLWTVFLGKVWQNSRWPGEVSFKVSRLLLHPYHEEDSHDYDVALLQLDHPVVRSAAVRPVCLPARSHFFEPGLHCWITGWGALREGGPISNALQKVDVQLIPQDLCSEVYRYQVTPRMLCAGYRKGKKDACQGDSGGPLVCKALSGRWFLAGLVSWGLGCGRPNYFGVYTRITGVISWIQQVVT
Put plainly: Matriptase 2 inhibition, fluorescence based assay (Method I). The format is biochemical. To be noted: Table A; Ki of Matriptase-2; read-out: Mat-2 Ki. The method, then:
• Method I: Test compounds were evaluated for their potential to inhibit Human Recombinant Matriptase 2 (in-house) using fluorescence based assay. The concentration of Recombinant Matriptase 2 and the substrate used in the assay was: 3.5 nM (In-house Matriptase 2) and 62 μM (Boc-Gln-Ala-Arg-7-amido-4-methyl coumarin hydrobromide −Cat log: I-1550 from Bachem) respectively. The assay buffer used was 50 mM TRIS pH 7.5, 150 mM NaCl, 0.01% Gelatin TCL059 Himedia). The assay was performed using 384 well black flat bottom plate from grenier (Cat log: 781076) at 25° C. The enzyme and compound were preincubated for 30 mins, the plate was read at 60 mins after substrate addition at wavelength Ex: 360/Em: 480 nm. The final assay volume was 20 μl. A stock solution of compounds was initially prepared in DMSO and appropriate dilutions were made and IC50 was determined for all the compounds (final DMSO conc in the assay was 1%). All the measurements were carried out using the Spectramax M5, Molecular devices.
To determine Ki values, dose response curves were generated by plotting percentage inhibition as a function of inhibitor concentration and the data was fitted to sigmoidal non-linear regression equation (variable slope) using Graph Pad prism software V8.
`CC[C@@H](COC(=O)c1cc2ccc(CN)nc2n1Cc1cc(NS(=O)(=O)Cc2ccccc2)cc2ccccc12)N(C)C` (racemic) [Compound 54, rac-(2R)-2-(dimethyl-amino)butyl 6-(amino-methyl)-1-{[3-(phenyl-methanesulfonamido)-naphthalen-1-yl]methyl}-1H-pyrrolo[2,3-b]pyr-idine-2-carboxylate]: the negative logarithm of the Ki (pKi) is no less than 7.00.
For `CN1CCCC[C@@H]1COC(=O)c1cc2ccc(CN)nc2n1Cc1cc(NS(=O)(=O)Cc2ccccc2)cc2ccccc12` (racemic) [Compound 63, (1-methylpiperidin-2-yl)methyl 6-(aminometh-yl)-1-{[3-(phenylmeth-anesulfonamido)naph-thalen-1-yl]lmethyl}-1H-pyrrolo[2,3-b]pyridine-2-carboxylate], the pKi was no less than 7.00.
As for `CN1CCO[C@@H](COC(=O)c2cc3ccc(CN)nc3n2Cc2cc(NS(=O)(=O)Cc3ccccc3)cc3ccccc23)C1` (racemic) [Compound 64, (4-methylmorpholin-2-yl)methyl 6-(aminometh-yl)-1-{[3-(phenylmeth-anesulfonamido)naph-thalen-1-yl]methyl}-1H-pyrrolo[2,3-b]pyridine-2-carboxylate], the negative-log Ki (pKi) is no less than 7.00.
As for `C[C@@H](c1ccccc1)S(=O)(=O)Nc1cc(Cn2c(C(=O)O)cc3ccc(CN)nc32)c2ccccc2c1` (racemic) [Compound 73, 6-(aminomethyl)-1-{[3-(1-phenylethanesulfon-amido)naphthalen-1-yl]-methyl}-1H-pyrrolo[2,3-b]pyridine-2-carboxylic acid], the figure is no less than 7.00; as for `CC(=O)O[C@H](C)OC(=O)c1cc2ccc(CN)nc2n1Cc1cc(NS(=O)(=O)Cc2ccccc2)cc2ccccc12` (racemic) [Compound 89, 1-[6-(aminomethyl)-1-{[3-(phenylmethanesul-fonamido)naphthalen-1-yl]methyl}-1H-pyrrolo-[2,3-b]pyridine-2-carbon-yloxy]ethyl acetate], 6.30 to 7.00.
For `NCc1ccc2cc(C(=O)O)n(Cc3cc(NS(=O)(=O)[C@H](F)c4ccccc4)cc4ccccc34)c2n1` (racemic) [Compound 98, 6-(aminomethyl)-1-({3-[fluoro(phenyl)methane-sulfonamido]naphthalen-1-yl}methyl)-1H-pyr-rolo[2,3-b]pyridine-2-carboxylic acid], the pKi was 6.30 to 7.00.
As to `CN1CCC[C@H](OC(=O)c2cc3ccc(CN)nc3n2Cc2cc(NS(=O)(=O)Cc3ccccc3)cc3ccccc23)C1` (racemic) [Compound 99, 1-methylpiperidin-3-yl 6-(aminomethyl)-1-{[3-(phenylmethanesulfon-amido)naphthalen-1-yl]-methyl}-1H-pyrrolo[2,3-b]pyridine-2-carboxylate], the negative logarithm of the Ki (pKi) was 6.30 to 7.00.
In the case of `NCc1ccc2cc(C(=O)OC[C@H]3CCCN3)n(Cc3cc(NS(=O)(=O)Cc4ccccc4)cc4ccccc34)c2n1` (racemic) [Compound 108, rac-[(2R)-pyrrolidin-2-yl]methyl 6-(aminometh-yl)-1-{[3-(phenylmeth-anesulfonamido)naph-thalen-1-yl]methyl}-1H-pyrrolo[2,3-b]pyridine-2-carboxylate], the negative logarithm of the Ki (pKi) was 6.30 to 7.00.
To `CC(C)C(=O)O[C@H](C)OC(=O)c1cc2ccc(CN)nc2n1Cc1cc(NS(=O)(=O)Cc2ccccc2)cc2ccccc12` (racemic) [Compound 118, 1-[6-(aminomethyl)-1-{[3-(phenylmethanesul-fonamido)naphthalen-1-yl]methyl}-1H-pyrrolo-[2,3-b]pyridine-2-car-bonyloxylethyl 2-meth-ylpropanoate] belongs 5.52 to 6.30; to `CCOC(=O)c1cc2ccc(CN)nc2n1Cc1cc(NS(=O)(=O)[C@@H](C)c2ccccc2)cc2ccccc12` (racemic) [Compound 119, ethyl 6-(aminomethyl)-1-{[3-(1-phenylethanesul-fonamido)naphthalen-1-yl]methyl}-1H-pyrrolo-[2,3-b]pyridine-2-car-boxylate], 5.52 to 6.30.
